Test results as given in patent US4973675A, “Hybrid nitrosoureidoanthracyclines having antitumor activity” (University of Tennessee Research Center, priority 1989, dated 1990).
Read-outs that look alike come from different tables or passages of the source.

Legend:
[1] = system: human CEM leukemic lymphocytes; assay: Growth inhibition of human CEM leukemic lymphocyte suspension cultures, 48 h continuous drug exposure (ID50); assay type: cell-based; conditions: Homo sapiens, Lymphocyte
Method: (§1) Culture and bioassay conditions were as described in Cancer Chemotherapy Pharmacology 20:277 (1987) "Comparative Effects of Adriamycin and DNA-nonbinding Analogues on DNA, RNA, and Protein Synthesis in Vitro", Israel et al., except that cell counts were determined by hemocytometer rather than by automated cell counting.

[2] = system: plasmid PC15 supercoiled DNA; assay: DNA unwinding assay (interference with DNA topoisomerase I-mediated unwinding; drug-DNA intercalation); assay type: biochemical; conditions: for interference with topoisomerase I-mediated conversion of supercoiled DNA / intercalation: 4 concentrations, 125-fold range
From the text: DNA unwinding assays were used to measure the ability of a test drug to interfere with DNA topoisomerase I-mediated unwinding of plasmid PC15 supercoiled DNA. DNA topoisomerase I controls the topology of double-stranded DNA and is itself not inhibited by DNA intercalating agents. Rather, intercalating agents cause distortion of the torsional angle between adjacent DNA strand components and thereby interfere with the ability of topoisomerase I to convert supercoiled DNA into relaxed forms. Accordingly, this assay is taken as the definitive test of drug-DNA intercalation.
Drugs were tested at 4 concentrations over a 125-fold concentration range. […] These compounds are 2-chloroethylurea derivatives of daunorubicin and adriamycin, respectively (i.e. not nitrosoureas, but chemical intermediates from which the nitrosoureas were derived).

[3] = system: calf thymus DNA; assay: Interstrand cross-link formation in isolated calf thymus DNA, ethidium bromide fluorescence assay; assay type: biochemical; conditions: 10 mM, 4 hours at 50° C.
Method: To further assess the alkylation potential of AD 312, the ability of this agent to form interstrand cross-links in isolated calf thymus DNA was examined using an ethidium bromide fluorescence assay. […] In one set of experiments, DNA was exposed briefly to AD 312 (30 minutes at 50° C.) before being reisolated by precipitation with ethanol. […] Such continuing reaction reflects the presence in the DNA of long-lived precursors of crosslinks similar to what has been found for the classical antitumor chloroethylnitrosoureas. […] It appears, therefore, that AD 312 induces DNA interstrand crosslinks via an initial adduct at O^6 -guanine.

[4] = Solubility in water or saline; assay type: physicochemical
Method: Accordingly, the compounds are formulated for administration by dissolving the compound in a pharmaceutically acceptable non-toxic carrier which contains a surfactant. The present inventors employ a formulation of 10% Cremaphor EL (a polyhydroxylated castor oil derivative) available from BASF Chemicals, 10% ethanol and 80% aqueous media (sterile water or saline solution). That quantity of the compound desired for establishing an effective dose is dissolved in a 1:1 mixture of Cremaphor EL and ethanol. Thereafter, sufficient aqueous medium is added with stirring to develop a final formulation containing 80% aqueous medium. This formulation is administered parenterally.

[5] = system: DNA topoisomerase II; assay: Drug-stimulated topoisomerase II-mediated DNA cleavage assay (end-labeled PMC41 DNA); assay type: biochemical; conditions: 625-fold concentration range
From the text: FIGS. 5A and 5B are a photographic reproduction of the results of drug-stimulated topoisomerase II-mediated DNA cleavage assays performed on various compounds, including compounds of the present invention.
DNA intercalation is a necessary but not a sufficient requirement for DNA topoisomerase II-mediated DNA cleavage. Accordingly, determination of drug-induced enzyme inhibition requires direct assay with isolated topoisomerase II. These assays involve determination of drug-enhanced topoisomerase II-mediated cleavage of PMC41 DNA appropriately end-labeled with [α-^32 P]dATP. As better seen in FIG. 5B, lane B, purified topoisomerase II, under the assay conditions, causes fragmentation of the DNA (background cleavage), as indicated by the radioautographic appearance of bands of cleaved DNA having differing mass values.

[6] = system: murine L1210 leukemia cells; assay: Clonogenic assay with cultured murine L1210 leukemia cells, 1 h drug exposure (LD90); assay type: cell-based; conditions: Mus musculus, L1210; 1 hr drug exposure; read-out: L1210 LD90 (dose killing 90% of clonogens)
Method: as §1
+Dose killing 90% of clonogens, 1hr. drug exposure.

[7] = CEM, 48 hr continuous drug exposure (Table 2), read-out: ID50 (the source's name)

SMILES | IC50 [1, 7] [nM] | further results
CNC(=O)N[C@H]1C[C@H](O[C@H]2C[C@](O)(C(C)=O)Cc3c(O)c4c(c(O)c32)C(=O)c2c(OC)cccc2C4=O)O[C@@H](C)[C@H]1O [AD 305] | 2300 | 
CCNC(=O)N[C@H]1C[C@H](O[C@H]2C[C@](O)(C(C)=O)Cc3c(O)c4c(c(O)c32)C(=O)c2c(OC)cccc2C4=O)O[C@@H](C)[C@H]1O [AD 306] | > 1000 | 
COc1cccc2c1C(=O)c1c(O)c3c(c(O)c1C2=O)C[C@@](O)(C(C)=O)C[C@@H]3O[C@H]1C[C@H](NC(=O)NCCCl)[C@H](O)[C@H](C)O1 [AD 307, 2-chloroethylureidodaunorubicin] | 300 | interference with topoisomerase I-mediated conversion of supercoiled DNA / intercalation [2]: reasonably strong intercalators; interstrand crosslink formation [3]: appeared to produce no such effect
CCCNC(=O)N[C@H]1C[C@H](O[C@H]2C[C@](O)(C(C)=O)Cc3c(O)c4c(c(O)c32)C(=O)c2c(OC)cccc2C4=O)O[C@@H](C)[C@H]1O [AD 308] | > 5000 | 
COc1cccc2c1C(=O)c1c(O)c3c(c(O)c1C2=O)C[C@@](O)(C(C)=O)C[C@@H]3O[C@H]1C[C@H](NC(=O)Nc2ccccc2)[C@H](O)[C@H](C)O1 [AD 309] | > 1000 | 
COc1cccc2c1C(=O)c1c(O)c3c(c(O)c1C2=O)C[C@@](O)(C(C)=O)C[C@@H]3O[C@H]1C[C@H](NC(=O)N(C)N=O)[C@H](O)[C@H](C)O1 [AD 310] | 1400 | 
CCN(N=O)C(=O)N[C@H]1C[C@H](O[C@H]2C[C@](O)(C(C)=O)Cc3c(O)c4c(c(O)c32)C(=O)c2c(OC)cccc2C4=O)O[C@@H](C)[C@H]1O [AD 311] |  | IC50 ([1]; 48 h, read-out: ID50): 1500 nM
CCCN(N=O)C(=O)N[C@H]1C[C@H](O[C@H]2C[C@](O)(C(C)=O)Cc3c(O)c4c(c(O)c32)C(=O)c2c(OC)cccc2C4=O)O[C@@H](C)[C@H]1O [AD 313] | > 1000 | 
COc1cccc2c1C(=O)c1c(O)c3c(c(O)c1C2=O)C[C@@](O)(C(C)=O)C[C@@H]3O[C@H]1C[C@H](NC(=O)NC(C)C)[C@H](O)[C@H](C)O1 [AD 328] | > 1000 | 
COc1ccc(NC(=O)N[C@H]2C[C@H](O[C@H]3C[C@](O)(C(C)=O)Cc4c(O)c5c(c(O)c43)C(=O)c3c(OC)cccc3C5=O)O[C@@H](C)[C@H]2O)cc1 [AD 330] | > 1000 | 
COc1cccc2c1C(=O)c1c(O)c3c(c(O)c1C2=O)C[C@@](O)(C(C)=O)C[C@@H]3O[C@H]1C[C@H](NC(=O)Nc2ccc(F)cc2)[C@H](O)[C@H](C)O1 [AD 332] |  | IC50 ([1]; 48 h, read-out: ID50): > 1000 nM
COc1cccc2c1C(=O)c1c(O)c3c(c(O)c1C2=O)C[C@@](O)(C(C)=O)C[C@@H]3O[C@H]1C[C@H](NC(=O)Nc2cccc(C(F)(F)F)c2)[C@H](O)[C@H](C)O1 [AD 334] | 830 | 
CCOC(=O)NC(=S)N[C@H]1C[C@H](O[C@H]2C[C@](O)(C(C)=O)Cc3c(O)c4c(c(O)c32)C(=O)c2c(OC)cccc2C4=O)O[C@@H](C)[C@H]1O [AD 336] | 600 | 
COc1cccc2c1C(=O)c1c(O)c3c(c(O)c1C2=O)C[C@@](O)(C(=O)CO)C[C@@H]3O[C@H]1C[C@H](NC(=O)N(CCCl)N=O)[C@H](O)[C@H](C)O1 [AD 337] |  | solubility ([4]; water or saline solution): essentially insoluble in water or saline solution; solubility ([4]; water, of the order of, read-out: solubility in water): < 25 µg/mL
CNC(=O)N[C@H]1C[C@H](O[C@H]2C[C@](O)(C(=O)CO)Cc3c(O)c4c(c(O)c32)C(=O)c2c(OC)cccc2C4=O)O[C@@H](C)[C@H]1O [AD 342] | 2000 | 
COc1cccc2c1C(=O)c1c(O)c3c(c(O)c1C2=O)C[C@@](O)(C(=O)CO)C[C@@H]3O[C@H]1C[C@H](NC(=O)N(C)N=O)[C@H](O)[C@H](C)O1 [AD 343] |  | IC50 ([1]; 48 h, read-out: ID50): 480 nM
CCNC(=O)N[C@H]1C[C@H](O[C@H]2C[C@](O)(C(=O)CO)Cc3c(O)c4c(c(O)c32)C(=O)c2c(OC)cccc2C4=O)O[C@@H](C)[C@H]1O [AD 344] |  | IC50 ([1]; 48 h, read-out: ID50): 580 nM
CCN(N=O)C(=O)N[C@H]1C[C@H](O[C@H]2C[C@](O)(C(=O)CO)Cc3c(O)c4c(c(O)c32)C(=O)c2c(OC)cccc2C4=O)O[C@@H](C)[C@H]1O [AD 345] |  | IC50 ([1]; 48 h, read-out: ID50): 610 nM
COc1cccc2c1C(=O)c1c(O)c3c(c(O)c1C2=O)C[C@@](O)(C(=O)CO)C[C@@H]3O[C@H]1C[C@H](NC(=O)NCCCl)[C@H](O)[C@H](C)O1 [AD 346, 2-chloroethylureidoadriamycin] | 90 | interference with topoisomerase I-mediated conversion of supercoiled DNA / intercalation [2]: reasonably strong intercalators; enhancement of topoisomerase II-mediated DNA cleavage [5]: do not enhance topoisomerase II-mediated cleavage
CCCNC(=O)N[C@H]1C[C@H](O[C@H]2C[C@](O)(C(=O)CO)Cc3c(O)c4c(c(O)c32)C(=O)c2c(OC)cccc2C4=O)O[C@@H](C)[C@H]1O [AD 348] | 770 | 
CCCN(N=O)C(=O)N[C@H]1C[C@H](O[C@H]2C[C@](O)(C(=O)CO)Cc3c(O)c4c(c(O)c32)C(=O)c2c(OC)cccc2C4=O)O[C@@H](C)[C@H]1O [AD 349] | 430 | 
COc1cccc2c1C(=O)c1c(O)c3c(c(O)c1C2=O)C[C@@](O)(C(=O)CO)C[C@@H]3O[C@H]1C[C@H](NC(=O)NC(C)C)[C@H](O)[C@H](C)O1 [AD 350] | 720 | 
COc1cccc2c1C(=O)c1c(O)c3c(c(O)c1C2=O)C[C@@](O)(C(=O)CO)C[C@@H]3O[C@H]1C[C@H](NC(=O)Nc2ccccc2)[C@H](O)[C@H](C)O1 [AD 352] | 400 | 
COc1ccc(NC(=O)N[C@H]2C[C@H](O[C@H]3C[C@](O)(C(=O)CO)Cc4c(O)c5c(c(O)c43)C(=O)c3c(OC)cccc3C5=O)O[C@@H](C)[C@H]2O)cc1 [AD 354] | 710 | 
COc1cccc2c1C(=O)c1c(O)c3c(c(O)c1C2=O)C[C@@](O)(C(=O)CO)C[C@@H]3O[C@H]1C[C@H](NC(=O)Nc2ccc(F)cc2)[C@H](O)[C@H](C)O1 [AD 356] | 1140 | 
CCOC(=O)NC(=S)N[C@H]1C[C@H](O[C@H]2C[C@](O)(C(=O)CO)Cc3c(O)c4c(c(O)c32)C(=O)c2c(OC)cccc2C4=O)O[C@@H](C)[C@H]1O [AD 360] | 360 | 
COc1cccc2c1C(=O)c1c(O)c3c(c(O)c1C2=O)C[C@@](O)(C(C)=O)C[C@@H]3O[C@H]1C[C@@H]2NC(=O)O[C@@H]2[C@H](C)O1 [AD 362] | 880 | 
COc1cccc2c1C(=O)c1c(O)c3c(c(O)c1C2=O)C[C@@](O)(C(=O)CO)C[C@@H]3O[C@H]1C[C@@H]2NC(=O)O[C@@H]2[C@H](C)O1 [AD 363] | 710 | 
COc1cccc2c1C(=O)c1c(O)c3c(c(O)c1C2=O)C[C@@](O)(C(=O)CO)C[C@@H]3O[C@H]1C[C@H](NC(=O)NCCCl)[C@@H](O)[C@H](C)O1 [AD 391, 2-chloroethylureidoepirubicin] | 80 | interference with topoisomerase I-mediated conversion of supercoiled DNA / intercalation [2]: strong intercalators; enhancement of topoisomerase II-mediated DNA cleavage [5]: do not enhance topoisomerase II-mediated cleavage
COc1cccc2c1C(=O)c1c(O)c3c(c(O)c1C2=O)C[C@@](O)(C(=O)CO)C[C@@H]3O[C@H]1C[C@H](N)[C@@H](O)[C@H](C)O1 [Epirubicin, epirubicin, reference compound] |  | IC50 ([1]; suspension culture, 48 hr continuous drug exposure (Table 3), read-out: CEM, ID50 (50% growth-inhibitory concentration)): 30 nM; IC90 [6]: 430 nM; relative strength of drug-DNA intercalation (arbitrary scale) ([2]; 0 = no intercalation, 9 = very strong intercalation): 7
